Read-outs that look alike come from different tables or passages of the source.
Assays:
in vivo [1] = details: rat; for severely toxic dose / severely toxic dose (STD): 28 days
Method: In a chronic tolerability study of MP470 hydrochloride salt in the rat, the animals were dosed 20, 60, 100 or 200 mg/kg/d (males) and 6, 20, 60 and 100 mg/kg/d (females) daily for 28 days. One female rat died after 5 doses at 100 mg/kg/d, however the it was not clear if this was related to the drug. Two additional female rats died on days 28 and 42 (control and 60 mg/kg/d) possibly due the trauma induced by repeated blood collection. There were no clinical signs of severe toxicity prior to deaths. The clinical abnormalities included hunched posture, soft feces and sporadic occurrence of hair loss. […] Although all animals gained weight during the study, the relative gain was lower in the males at 200 mg/kg/d (70% control) and females at 60 and 100 mg/kg/d (83 and 57% control). […] There were signs of recovery after cessation of dosing. There were no drug related adverse ophthalmologic effects or change hematology parameters. Significant clinical chemistry changes included decreases in glucose and triglyceride levels in males at 200 mg/kg/d, and alterations in cholesterol, troponin-1 and alkaline phosphatase in females (60 and 100 mg/kg/d). There was no correlative histopathology for these alterations. There were no drug related adverse changes in urinalysis or organ weight changes. There were sporadic alterations in organ weights but without corresponding microscopic pathology. […] There was adequate systemic exposure in both sexes; however the exposure was not dose-proportional (lower at higher doses). At all doses exposure to females was higher than that in males and exposure on day 27 was higher than that on day 1. There was substantial variability in the half-lives and ranged from 2 to 8 hours. The no observed effect level (NOEL) was 60 mg/kg/d (360 mg/m2/d) for males and 20 mg/kg/d (120 mg/m2/d) for females. In the absence of clear target organ toxicity or signs of severe toxicity a severely toxic dose (STD) could not be calculated. STD is likely to be higher than 100 mg/kg/d for females and 200 mg/kg/d for the males.

in vivo [2] = details: dog
Method: Two groups of dogs, each consisting of one male and one female, received alternating escalating single doses of 30, 60, 240, 1000, and 2000 mg/kg of the test article. MP470.HCl was administered by capsule. […] No test article related mortalities or clinical signs of toxicity were observed. Test article related effects were limited to emesis following administration of 1000 and 2000 mg/kg doses. Single oral dose NOEL was determined to be 240 mg/kg and the acute oral MTD was 2000 mg/kg (highest dose tested).

[3] = system: Rad51 in A549 non-small cell lung cancer cells; experiment: Rad51 protein level by Western blot in cells; type: cell-based; details: MP470.HCl alone, 24 hrs
Method: Rad51 protein levels were also determined in A549 non-small cell lung cancer cells using combinations with DNA damaging agents. Cells were treated for 24 hrs with 6.1 μM (IC30 of carboplatin alone) carboplatin in combination with 0.71 μM or 3.82 μM MP470.HCl. Protein lysates were isolated from treated and non-treated cells, separated by SDS-PAGE, and transferred to nitrocellulose. […] The increase in Rad51 due to carboplatin treatment was reduced by 26% when treated in combination with 0.71 μM MP470.HCl and by 42% with 3.82 μM MP470.HCl

[4] = rat, in vivo
Method: Twenty-four rats were placed into four groups each consisting of three animals per sex. The animals were weighed the day before dosing, as well as just prior to dosing.
After intravenous infusion of MP470.HCl at 5 mg/kg, average MP470 peak plasma concentrations of 454.3 ng/mL for males and 370.7 ng/mL for females were attained at 0.083 hours (5 minutes), the first sampling point postdose. After oral administration of non-micronized MP470.HCl, peak plasma concentrations of MP470 were attained at 0.5-12 hours for Group 2 (25 mg/kg) and 4-12 hours for Group 3 (100 mg/kg, suspension). The extent of systemic exposure of rats to MP470, characterized by AUCO-∞, was approximately 3.8-fold and 2.9-fold higher in females than in males for Groups 2 and 3, respectively. Average AUCO-∞ values were higher at 100 mg/kg than at 25 mg/kg and the increases in AUCO-∞ were greater than dose-proportional.
After oral administration of micronized MP470.HCl (Group 4), peak plasma concentrations of MP470 were attained at 4-12 hours. The extent of systemic exposure of rats to MP470, characterized by AUCO-∞, was approximately 3.4-fold higher in females than in males for Group 4. The extent of exposure of rats to MP470, characterized by AUCO-∞, was 1.7-fold (males) and 1.4-fold (females) higher for non-micronized MP470 HCl (Group 3) than for micronized MP470 HCl (Group 4).

in vivo [5] = details: both, beagle, dog, iv
Method: The purpose of these studies was to determine the highest level of MP470 free base that can be administered intravenously to dogs without causing extreme illness, maximum tolerated dose (MTD). In both studies a single male and a single female beagle dog were injected intravenously with MP470.
In the second study we tested doses of 0.625, 1.25, 2.5, 5, 10, and 20 mg/kg MP470 in 1 male and 1 female beagle dog with 48-96 hrs between dose escalations, with the exception of 11 days between dose 5 and 6. Additionally, in this study approximately 5-10 second electrocardiograph (ECG) tracings in a lead II configuration were obtained from each dog prior to each dose, approximately 20 minutes after the start of dosing, and immediately after completion of dosing.

[6] = system: HT-29 colorectal cancer cells; type: in vivo
Method: MP470 and MP470 HCl were tested against different tumor types in athymic nude mice as summarized below (Table 8). Various formulations and routes were evaluated. HT-29 colorectal cancer cells and SB-CL2 melanoma cells were implanted subcutaneously, while A549 lung cancer cells, MiaPaCa-2 pancreatic cancer cells, TT medullary thyroid cancer cells, and OVCAR-3 ovarian cancer cells were implanted […] in the hind flank of mice. All animals were allowed to develop medium-sized (80-125 mg) tumors, before initiation of dosing. Tumor volume and mouse bodyweight were followed over the course of the study.
HT-29 Colorectal Model—Eighteen athymic nude mice were injected subcutaneously with HT-29 colorectal cancer cells. After tumor formation, animals received either 10 or 20 mg/kg MP470 by intraperitoneal (IP) injection using a qd5×2 wk schedule. On Day 5 of treatment, tumor growth rates in vehicle control animals were 19.5 mm3/d, while MP470-treated animals had tumor growth rates of 1.4 mm3/d (10 mg/kg) and −5.0 mm3/d (20 mg/kg). Tumor growth continued to decline throughout the 14 days of study. On Day 14, the tumor growth rates were 16.4 mm3/d (vehicle) compared to 4.3 mm3/d (10 mg/kg) and 5.5 mm3/d (20 mg/kg) in treated animals.

Structure (SMILES): Cl.S=C(NCc1ccc2c(c1)OCO2)N1CCN(c2ncnc3c2oc2ccccc23)CC1 [MP470.HCl, 4-[1]benzofuro[3,2-d]pyrimidin-4-yl-N-(1,3-benzodioxol-5-ylmethyl)piperazine-1-carbothioamide hydrochloride]
- half-life (in vivo [1]; both sexes, rats, daily oral dosing 28 days, read-out: half-lives): 2 to 8 h
- severely toxic dose (in vivo [1]; female): > 600 mg/m2/d
- severely toxic dose (STD) (in vivo [1]; female): higher than 100 mg/kg/d
- severely toxic dose (in vivo [1]; male): > 1200 mg/m2/d
- severely toxic dose (STD) (in vivo [1]; male): > 200 mg/kg/day
- cardiotoxicity (histopathology) (in vivo [1]): no evidence of cardiotoxicity in either sex
- MTD at 24 h (in vivo [2]; both sexes, po): 2000 mg/kg
- Single oral dose NOEL (in vivo [2]; both, 24 h): 240 mg/kg
- Rad51 expression [3]: did not alter the expression of Rad51
- Bioavailability (%) ([4]; female): 100.21%
- AUC INF ([4]; female, iv, 5 mg/kg): 2530.9 ng·h/mL
- t1/2 ([4]; female, iv, 5 mg/kg): 2.6 to 2.9 h
- AUC INF ([4]; female, po, 25 mg/kg): 12681.6 ng·h/mL
- t1/2 ([4]; female, po, 25 mg/kg): 4.0 to 17.4 h
- Bioavailability (%) ([4]; male): 43.40%
- AUC INF ([4]; male, iv, 5 mg/kg): 1546.3 ng·h/mL
- t1/2 ([4]; male, iv, 5 mg/kg): 3.1 to 4.4 h
- AUC INF ([4]; male, po, 25 mg/kg): 3355.1 ng·h/mL
- t1/2 ([4]; male, po, 25 mg/kg): 2.8 to 4.2 h

Structure (SMILES): S=C(NCc1ccc2c(c1)OCO2)N1CCN(c2ncnc3c2oc2ccccc23)CC1 [MP470, 4-[1]benzofuro[3,2-d]pyrimidin-4-yl-N-(1,3-benzodioxol-5-ylmethyl)piperazine-1-carbothioamide]
- MTD at 0.5 h (in vivo [5]): 10 mg/kg
- tumor growth rate ([6]; Day 5, 10 mg/kg IP qd5×2 wk (vehicle 19.5)): 1.4 mm3/d
- tumor growth rate ([6]; Day 5, 20 mg/kg IP qd5×2 wk (vehicle 19.5)): −5.0 mm3/d
- tumor growth rate ([6]; Day 14, 10 mg/kg IP (vehicle 16.4)): 4.3 mm3/d
- tumor growth rate ([6]; Day 14, 20 mg/kg IP (vehicle 16.4)): 5.5 mm3/d
- Outcome: tumor growth ([6]; HT-29 colon, IP 10, 20 mg/kg, (qd × 5) × 2 w, TV-13): tumor growth was slowed but not reversed
